Results published in the supplement of paper PMC10307832.

What was measured:
Assay in all cases: relative viability (nuclei count vs DMSO), 5 days (fraction); higher = more cells survive
[1] = compound: C1CSC2=C(C(=O)N1)SC3=C2C=C(C=C3)O [kb NB 142-70] + CC(C)C[C@H](NC(=O)[C@H](Cc1ccccc1)NC(=O)c1cnccn1)B(O)O [Bortezomib] (partner 0.002 µM)
Summary of the method: (§1)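 A single step with final 0.05% Triton X-100, 1% formaldehyde and 1 ug/ml Hoechst fixed the cells and stained nuclei 5 days after treatment. Lung cancer cell lines in 1536-well plates had been treated by pin tool the day after seeding with one drug alone or a fixed anchor-drug dose plus five library-drug doses (not always all listed) in √10 steps, and nuclei were counted on 4× images. Relative viability is the ratio of nuclei in treated wells to nuclei in vehicle wells, taken as the median of duplicate plates.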

kb NB 142-70 + Lapatinib = compound: C1CSC2=C(C(=O)N1)SC3=C2C=C(C=C3)O [kb NB 142-70] + CS(=O)(=O)CCNCc1ccc(-c2ccc3ncnc(Nc4ccc(OCc5cccc(F)c5)c(Cl)c4)c3c2)o1 [Lapatinib] (partner 2 µM)
Summary of the method: as §1

[2] = compound: C1CSC2=C(C(=O)N1)SC3=C2C=C(C=C3)O [kb NB 142-70] + Cc1cc(Nc2cc(N3CCN(C)CC3)nc(Sc3ccc(NC(=O)C4CC4)cc3)n2)n[nH]1 [Tozasertib] (partner 0.1 µM)
Summary of the method: as §1

kb NB 142-70 + AZD7762 = compound: C1CSC2=C(C(=O)N1)SC3=C2C=C(C=C3)O [kb NB 142-70] + NC(=O)Nc1cc(-c2cccc(F)c2)sc1C(=O)N[C@H]1CCCNC1 [AZD7762] (partner 0.2 µM)
Summary of the method: as §1

kb NB 142-70 + Olaparib = compound: C1CSC2=C(C(=O)N1)SC3=C2C=C(C=C3)O [kb NB 142-70] + O=C(c1cc(Cc2n[nH]c(=O)c3ccccc23)ccc1F)N1CCN(C(=O)C2CC2)CC1 [Olaparib] (partner 8 µM)
Summary of the method: as §1

[3] = compound: NCC(=O)Nc1ccc(-n2nc(C(F)(F)F)cc2-c2ccc3c(ccc4ccccc43)c2)cc1 + C[C@@H](Oc1cc(-c2cnn(C3CCNCC3)c2)cnc1N)c1c(Cl)ccc(F)c1Cl [Crizotinib] (partner 1 µM)
Summary of the method: as §1

Cell Line	relative viability ([1]; first compound 0.1 µM)	relative viability ([1]; first compound 1 µM)	relative viability ([1]; first compound 3.162 µM)	relative viability (kb NB 142-70 + Lapatinib; first compound 0.1 µM)	relative viability (kb NB 142-70 + Lapatinib; first compound 1 µM)	relative viability (kb NB 142-70 + Lapatinib; first compound 3.162 µM)	relative viability ([2]; first compound 0.1 µM)	relative viability ([2]; first compound 1 µM)	relative viability ([2]; first compound 3.162 µM)	relative viability (kb NB 142-70 + AZD7762; first compound 0.1 µM)	relative viability (kb NB 142-70 + AZD7762; first compound 1 µM)	relative viability (kb NB 142-70 + AZD7762; first compound 3.162 µM)	relative viability (kb NB 142-70 + Olaparib; first compound 0.1 µM)	relative viability (kb NB 142-70 + Olaparib; first compound 1 µM)	relative viability (kb NB 142-70 + Olaparib; first compound 3.162 µM)	relative viability ([3]; first compound 0.02 µM)	relative viability ([3]; first compound 0.06325 µM)	relative viability ([3]; first compound 0.2 µM)	relative viability ([3]; first compound 0.6325 µM)	relative viability ([3]; first compound 2 µM)
NCI-H1734	0.889	0.867	0.49	1.06	0.895	0.523	0.271	0.263	0.234	0.585	0.589	0.507	0.586	0.509	0.304	0.801	0.611	0.788	0.739	0.683
PC-14	0.896	0.932	0.82	0.362	0.304	0.341	0.569	0.612	0.531	0.353	0.295	0.408	0.318	0.265	0.216	1.1	0.905	1.04	0.976	0.937
NCI-H1915	0.998	1	0.85	1.05	1	0.845	0.445	0.397	0.276	0.679	0.821	0.851	0.286	0.236	0.145	0.864	0.873	0.871	0.83	0.898
NCI-H1666	0.903	0.713	0.36	0.637	0.598	0.335	0.642	0.614	0.479	0.879	0.714	0.89	0.73	0.78	0.823	1	0.904	1.16	0.854	0.982
HCC-366	1.07	0.926	1.12	1.06	0.926	0.927	0.122	0.176	0.118	0.277	0.572	0.734	0.371	0.509	0.443	0.558	0.589	0.55	0.736	0.456
PC-3 [JPC-3]	0.8	0.83	0.898	0.452	0.481	0.433	0.923	0.94	0.773	0.832	0.807	0.773	1.12	1.25	1.15	1.01	1.03	0.996	0.959	0.99
LC-2-ad	1.12	1.03	0.916	0.96	0.885	0.937	0.451	0.428	0.341	0.826	0.825	0.888	0.681	0.716	0.649	0.463	0.543	0.433	0.47	0.389
